Assay [1] relates to hGYS1 enzyme / glycogen synthesis in HeLa cells. Kind of assay: GYS1 cell based assay (glycogen synthesis, Glucose-glo). Also noted: species or system human. The following applies: Homo sapiens, HeLa, 24 h, 24 h incubation, 20 mM glucose, geometric mean of at least 2 runs. The method in brief: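 HeLa cells starved 24 h in medium containing only 1× Glutamax were plated onto compound in medium with 20 mM glucose (1% DMSO final) for 24 h, 37 °C, 5% CO2. Acid lysates were Tris-quenched, glucoamylase-digested (pH 5.3, 1 h, 37 °C) and read by Glucose-glo luminescence. IC50 came from Hill fits, as geometric mean of ≥2 runs.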

For assay [2], the target named is hGYS1 enzyme (recombinant hGYS1/GN1 protein) (Homo sapiens (Human), UniProt P13807). Kind of assay: GYS1 coupled enzyme assay (PK/LDH). Format: biochemical. The following applies: hGYS1/GN1 50 nM, UDP-Glucose 0.8 mM, G6P 1 mM; geometric mean of at least 2 runs.

This note sets out measurements from US11814367B2, “Inhibitors of glycogen synthase 1 (GYS1) and methods of use thereof” (Maze Therapeutics, Inc., priority 2021, dated 2023).

Bounds are passed on as bounds.

Sequence of hGYS1 enzyme (recombinant hGYS1/GN1 protein) (P13807 whole entry): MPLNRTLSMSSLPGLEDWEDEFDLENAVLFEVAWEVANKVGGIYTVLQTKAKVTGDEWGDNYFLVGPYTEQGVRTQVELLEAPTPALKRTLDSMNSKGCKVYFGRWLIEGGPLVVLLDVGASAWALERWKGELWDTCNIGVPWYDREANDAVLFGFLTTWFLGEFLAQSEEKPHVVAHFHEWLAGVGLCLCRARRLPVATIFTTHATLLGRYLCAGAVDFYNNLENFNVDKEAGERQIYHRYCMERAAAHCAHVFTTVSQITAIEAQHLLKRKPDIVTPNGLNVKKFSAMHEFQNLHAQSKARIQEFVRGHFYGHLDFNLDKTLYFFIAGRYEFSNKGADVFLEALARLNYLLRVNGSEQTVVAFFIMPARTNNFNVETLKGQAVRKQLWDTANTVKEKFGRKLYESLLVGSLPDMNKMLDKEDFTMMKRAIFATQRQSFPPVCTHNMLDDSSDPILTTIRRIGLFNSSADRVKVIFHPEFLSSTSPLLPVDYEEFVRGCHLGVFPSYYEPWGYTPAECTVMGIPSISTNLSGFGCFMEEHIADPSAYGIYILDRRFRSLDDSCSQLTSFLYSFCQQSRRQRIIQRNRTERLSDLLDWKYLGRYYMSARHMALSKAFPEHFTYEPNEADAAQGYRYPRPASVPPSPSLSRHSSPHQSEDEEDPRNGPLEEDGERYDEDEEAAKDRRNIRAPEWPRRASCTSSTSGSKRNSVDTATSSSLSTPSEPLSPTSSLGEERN
Sequence of hGYS1 enzyme (recombinant hGYS1/GN1 protein) (P46976 whole entry partner): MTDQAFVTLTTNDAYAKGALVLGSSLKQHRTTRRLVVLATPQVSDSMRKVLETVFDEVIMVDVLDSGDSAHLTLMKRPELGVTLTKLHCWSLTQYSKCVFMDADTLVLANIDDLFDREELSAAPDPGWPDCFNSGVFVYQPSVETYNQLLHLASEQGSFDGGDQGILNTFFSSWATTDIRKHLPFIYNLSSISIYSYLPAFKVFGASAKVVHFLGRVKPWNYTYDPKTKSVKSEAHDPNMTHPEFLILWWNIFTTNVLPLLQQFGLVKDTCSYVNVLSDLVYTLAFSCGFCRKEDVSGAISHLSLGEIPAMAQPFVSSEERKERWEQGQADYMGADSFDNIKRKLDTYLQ

What is called IC50 is the concentration that gives 50% inhibition. Turning to `Cn1cc(CC(=O)N2C[C@H](F)C[C@H]2C(=O)N[C@@H](c2ccccc2)c2ccc(C3CC3)c(F)n2)c(C(F)F)n1` [Compound 749, (2S,4R)-N-[(S)-(5-cyclopropyl-6-fluoropyridin-2-yl)(phenyl)methyl]-1-{2-[3-(difluoromethyl)-1-methyl-1H-pyrazol-4-yl]acetyl}-4-fluoropyrrolidine-2-carboxamide], the IC50 in assay [1] came out at 250 nM; in assay [2] it was 6 nM.

Consider `Cc1cc(C(F)F)n(CC(=O)N2C[C@H](F)C[C@H]2C(=O)N[C@@H](c2ccccc2)c2ccc(C3CC3)c(F)n2)n1` [Compound 750, (2S,4R)-N-[(S)-(5-cyclopropyl-6-fluoropyridin-2-yl)(phenyl)methyl]-1-{2-[5-(difluoromethyl)-3-methyl-1H-pyrazol-1-yl]acetyl}-4-fluoropyrrolidine-2-carboxamide], for which the IC50 in assay [1] worked out at 260 nM; in assay [2], 11 nM.

Turning to `Cn1ncc(CC(=O)N2C[C@H](F)C[C@H]2C(=O)N[C@@H](c2ccccc2)c2ccc(C3CC3)c(F)n2)c1C(F)F` [Compound 751, (2S,4R)-N-[(S)-(5-cyclopropyl-6-fluoropyridin-2-yl)(phenyl)methyl]-1-{2-[5-(difluoromethyl)-1-methyl-1H-pyrazol-4-yl]acetyl}-4-fluoropyrrolidine-2-carboxamide], the IC50 in assay [1] came to 470 nM; in assay [2] it was 13 nM.

In the case of `Cc1cc(C(F)F)nn1CC(=O)N1C[C@H](F)C[C@H]1C(=O)N[C@@H](c1ccccc1)c1ccc(C2CC2)c(F)n1` [Compound 752, (2S,4R)-N-[(S)-(5-cyclopropyl-6-fluoropyridin-2-yl)(phenyl)methyl]-1-{2-[3-(difluoromethyl)-5-methyl-1H-pyrazol-1-yl]acetyl}-4-fluoropyrrolidine-2-carboxamide], the concentration for half-maximal inhibition (IC50) in assay [1] was 640 nM; in assay [2], 21 nM.

Regarding `CCn1ccnc(CC(=O)N2C[C@H](F)C[C@H]2C(=O)N[C@@H](c2ccccc2)c2ccc(C3CC3)c(F)n2)c1=O` [Compound 753, (2S,4R)-N-[(S)-(5-cyclopropyl-6-fluoropyridin-2-yl)(phenyl)methyl]-1-[2-(4-ethyl-3-oxo-3,4-dihydropyrazin-2-yl)acetyl]-4-fluoropyrrolidine-2-carboxamide], the IC50 in assay [1] was 320 nM; in assay [2] it was 21 nM.

As to `Cn1ncc(C(F)F)c1CC(=O)N1C[C@H](F)C[C@H]1C(=O)N[C@@H](c1ccccc1)c1ccc(C2CC2)c(F)n1` [Compound 754, (2S,4R)-N-[(S)-(5-cyclopropyl-6-fluoropyridin-2-yl)(phenyl)methyl]-1-{2-[4-(difluoromethyl)-1-methyl-1H-pyrazol-5-yl]acetyl}-4-fluoropyrrolidine-2-carboxamide], the results for the IC50 in assay [1] and in assay [2] were 420 nM and 27 nM, respectively.

Turning to `O=C(N[C@@H](c1ccccc1)c1ccc(C2CC2)c(F)n1)[C@@H]1C[C@@H](F)CN1C(=O)Cn1nnnc1C(F)(F)F` [Compound 755, (2S,4R)-N-[(S)-(5-cyclopropyl-6-fluoropyridin-2-yl)(phenyl)methyl]-4-fluoro-1-{2-[5-(trifluoromethyl)-1H-1,2,3,4-tetrazol-1-yl]acetyl}pyrrolidine-2-carboxamide], the IC50 came out at 1060 nM in assay [1] and 102 nM in assay [2].

On to `O=C(N[C@@H](c1ccccc1)c1ccc(C2CC2)c(F)n1)[C@@H]1C[C@@H](F)CN1C(=O)Cc1[nH]nnc1C(F)F` [Compound 756, (2S,4R)-N-[(S)-(5-cyclopropyl-6-fluoropyridin-2-yl)(phenyl)methyl]-1-{2-[4-(difluoromethyl)-1H-1,2,3-triazol-5-yl]acetyl}-4-fluoropyrrolidine-2-carboxamide], for which the IC50 in assay [1] is 1700 nM; in assay [2], 23 nM.

In the case of `Cn1cc(C(F)F)c(CC(=O)N2C[C@H](F)C[C@H]2C(=O)N[C@@H](c2ccccc2)c2ccc(C3CC3)c(F)n2)n1` [Compound 757, (2S,4R)-N-[(S)-(5-cyclopropyl-6-fluoropyridin-2-yl)(phenyl)methyl]-1-{2-[4-(difluoromethyl)-1-methyl-1H-pyrazol-3-yl]acetyl}-4-fluoropyrrolidine-2-carboxamide], the IC50 came to 400 nM in assay [1] and 29 nM in assay [2].

For `O=C(N[C@@H](c1ccccc1)c1ccc(C2CC2)c(F)n1)[C@@H]1C[C@@H](F)CN1C(=O)Cn1nncc1N1CC(F)(F)C1` [Compound 758, (2S,4R)-N-[(S)-(5-cyclopropyl-6-fluoropyridin-2-yl)(phenyl)methyl]-1-{2-[5-(3,3-difluoroazetidin-1-yl)-1H-1,2,3-triazol-1-yl]acetyl}-4-fluoropyrrolidine-2-carboxamide], the IC50 in assay [1] was 1160 nM; in assay [2], 32 nM.

With `O=C(N[C@@H](c1ccccc1)c1ccc(C2CC2)c(F)n1)[C@@H]1C[C@@H](F)CN1C(=O)Cn1cnnc1C(F)F` [Compound 759, (2S,4R)-N-[(S)-(5-cyclopropyl-6-fluoropyridin-2-yl)(phenyl)methyl]-1-{2-[3-(difluoromethyl)-4H-1,2,4-triazol-4-yl]acetyl}-4-fluoropyrrolidine-2-carboxamide], the IC50 in assay [1] is 590 nM; in assay [2], 18 nM.

`O=C(N[C@@H](c1ccccc1)c1ccc(C2CC2)c(F)n1)[C@@H]1C[C@@H](F)CN1C(=O)Cn1nccc1C(F)(F)F` [Compound 760, (2S,4R)-N-[(S)-(5-cyclopropyl-6-fluoropyridin-2-yl)(phenyl)methyl]-4-fluoro-1-{2-[5-(trifluoromethyl)-1H-pyrazol-1-yl]acetyl}pyrrolidine-2-carboxamide]: the IC50 is 370 nM in assay [1] and 17 nM in assay [2].

On to `CC(C)c1ccc([C@@H](NC(=O)[C@@H]2C[C@@H](F)CN2C(=O)Cc2[nH]nnc2N(C)C)c2ccccc2)cc1F` [Compound 775, (2S,4R)-1-{2-[4-(dimethylamino)-1H-1,2,3-triazol-5-yl]acetyl}-4-fluoro-N-[(S)-[3-fluoro-4-(propan-2-yl)phenyl](phenyl)methyl] pyrrolidine-2-carboxamide], for which the IC50 in assay [1] was more than 17500 nM; in assay [2] it was 1080 nM.

Consider `CCn1cc(CC(=O)N2C[C@H](F)C[C@H]2C(=O)N[C@@H](c2ccccc2)c2ccc(C(C)C)c(F)n2)cc(C)c1=O` [Compound 796, (2S,4R)-1-[2-(1-ethyl-5-methyl-6-oxo-1,6-dihydropyridin-3-yl)acetyl]-4-fluoro-N-[(S)-[6-fluoro-5-(propan-2-yl)pyridin-2-yl](phenyl)methyl] pyrrolidine-2-carboxamide], for which the IC50 in assay [1] stood at 110 nM; in assay [2] it was 5 nM.

With `CCn1cc(CC(=O)N2C[C@H](F)C[C@H]2C(=O)N[C@@H](c2ccccc2)c2ccc(C(C)C)c(F)n2)ncc1=O` [Compound 797, (2S,4R)-1-[2-(4-ethyl-5-oxo-4,5-dihydropyrazin-2-yl)acetyl]-4-fluoro-N-[(S)-[6-fluoro-5-(propan-2-yl)pyridin-2-yl](phenyl)methyl] pyrrolidine-2-carboxamide], the IC50 in assay [1] was 290 nM; in assay [2], 16 nM.

For `CCOc1ncc(CC(=O)N2C[C@H](F)C[C@H]2C(=O)N[C@@H](c2ccccc2)c2ccc(C(C)C)c(F)n2)cc1C` [Compound 798, (2S,4R)-1-[2-(6-ethoxy-5-methylpyridin-3-yl)acetyl]-4-fluoro-N-[(S)-[6-fluoro-5-(propan-2-yl)pyridin-2-yl](phenyl)methyl] pyrrolidine-2-carboxamide], the IC50 amounted to 220 nM in assay [1] and 12 nM in assay [2].
